Results reported in the supplement of paper PMC10307832.

Columns and labels:
Assay in all cases: relative viability (nuclei count vs DMSO), 5 days (fraction); higher = more cells survive
COR-L 105 = test system: COR-L 105
How it was run: (§1)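 Relative viability equals treated-well nuclei counts divided by vehicle-well nuclei counts. Counts came from 4× images of lung cancer cell lines grown in 1536-well plates for 5 days after pin-tool dosing on the day after seeding. Dosing used one drug alone or a fixed anchor-drug dose plus five library-drug doses (not always all listed) in √10 steps, and values are medians of duplicate plates.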

EMC-BAC-2 = test system: EMC-BAC-2
How it was run: as §1

NCI-H727 = test system: NCI-H727
How it was run: as §1

NCI-H1395 = test system: NCI-H1395
How it was run: as §1

CAL-12T = test system: CAL-12T
How it was run: as §1

SK-LU-1 = test system: SK-LU-1
How it was run: as §1

HCC-366 = test system: HCC-366
How it was run: as §1

HOP-62 = test system: HOP-62
How it was run: as §1

NCI-H1437 = test system: NCI-H1437
How it was run: as §1

NCI-H1755 = test system: NCI-H1755
How it was run: as §1

HARA = test system: HARA
How it was run: as §1

A-427 = test system: A-427
How it was run: as §1

NCI-H1792 = test system: NCI-H1792
How it was run: as §1

NCI-H2228 = test system: NCI-H2228
How it was run: as §1

NCI-H2009 = test system: NCI-H2009
How it was run: as §1

NCI-H1915 = test system: NCI-H1915
How it was run: as §1

NCI-H23 = test system: NCI-H23
How it was run: as §1

SW 1573 = test system: SW 1573
How it was run: as §1

NCI-H460 = test system: NCI-H460
How it was run: as §1

HCC-827 = test system: HCC-827
How it was run: as §1

Cc1sc2c(c1C)C(c1ccc(Cl)cc1)=N[C@@H](CC(=O)OC(C)(C)C)c1nnc(C)n1-2 [JQ1] + CC1(C)CCC(c2ccc(Cl)cc2)=C(CN2CCN(c3ccc(C(=O)NS(=O)(=O)c4ccc(N[C@H](CCN5CCOCC5)CSc5ccccc5)c(S(=O)(=O)C(F)(F)F)c4)cc3)CC2)C1 [Navitoclax] (partner 0.5 µM)
relative viability (COR-L 105; first compound 0.04 µM): 0.707
relative viability (COR-L 105; first compound 0.1265 µM): 0.567
relative viability (COR-L 105; first compound 0.4 µM): 0.462
relative viability (COR-L 105; first compound 1.265 µM): 0.282
relative viability (COR-L 105; first compound 4 µM): 0.326
relative viability (EMC-BAC-2; first compound 0.04 µM): 1.18
relative viability (EMC-BAC-2; first compound 0.1265 µM): 1.18
relative viability (EMC-BAC-2; first compound 0.4 µM): 1.01
relative viability (EMC-BAC-2; first compound 1.265 µM): 0.61
relative viability (EMC-BAC-2; first compound 4 µM): 0.658
relative viability (NCI-H727; first compound 0.04 µM): 0.436
relative viability (NCI-H727; first compound 0.1265 µM): 0.453
relative viability (NCI-H727; first compound 0.4 µM): 0.291
relative viability (NCI-H727; first compound 1.265 µM): 0.209
relative viability (NCI-H727; first compound 4 µM): 0.252
relative viability (NCI-H1395; first compound 0.04 µM): 1.13
relative viability (NCI-H1395; first compound 0.1265 µM): 1.03
relative viability (NCI-H1395; first compound 0.4 µM): 0.951
relative viability (NCI-H1395; first compound 1.265 µM): 0.633
relative viability (NCI-H1395; first compound 4 µM): 0.516
relative viability (CAL-12T; first compound 0.04 µM): 1.12
relative viability (CAL-12T; first compound 0.1265 µM): 1.29
relative viability (CAL-12T; first compound 0.4 µM): 0.701
relative viability (CAL-12T; first compound 1.265 µM): 0.295
relative viability (CAL-12T; first compound 4 µM): 0.408
relative viability (SK-LU-1; first compound 0.04 µM): 0.841
relative viability (SK-LU-1; first compound 0.1265 µM): 0.784
relative viability (SK-LU-1; first compound 0.4 µM): 0.791
relative viability (SK-LU-1; first compound 1.265 µM): 0.0557
relative viability (SK-LU-1; first compound 4 µM): 0.0951
relative viability (HCC-366; first compound 0.04 µM): 1.05
relative viability (HCC-366; first compound 0.4 µM): 0.915
relative viability (HCC-366; first compound 1.265 µM): 0.63
relative viability (HCC-366; first compound 4 µM): 0.115
relative viability (HOP-62; first compound 0.04 µM): 0.926
relative viability (HOP-62; first compound 0.1265 µM): 0.841
relative viability (HOP-62; first compound 0.4 µM): 0.516
relative viability (HOP-62; first compound 1.265 µM): 0.133
relative viability (HOP-62; first compound 4 µM): 0.0774
relative viability (NCI-H1437; first compound 0.04 µM): 1.03
relative viability (NCI-H1437; first compound 0.1265 µM): 0.798
relative viability (NCI-H1437; first compound 0.4 µM): 0.693
relative viability (NCI-H1437; first compound 1.265 µM): 0.325
relative viability (NCI-H1437; first compound 4 µM): 0.306
relative viability (NCI-H1755; first compound 0.04 µM): 1.01
relative viability (NCI-H1755; first compound 0.1265 µM): 0.991
relative viability (NCI-H1755; first compound 0.4 µM): 0.922
relative viability (NCI-H1755; first compound 1.265 µM): 0.59
relative viability (NCI-H1755; first compound 4 µM): 0.455
relative viability (HARA; first compound 0.04 µM): 1.11
relative viability (HARA; first compound 0.1265 µM): 1
relative viability (HARA; first compound 0.4 µM): 0.781
relative viability (HARA; first compound 1.265 µM): 0.261
relative viability (HARA; first compound 4 µM): 0.234
relative viability (A-427; first compound 0.04 µM): 0.997
relative viability (A-427; first compound 0.1265 µM): 0.974
relative viability (A-427; first compound 0.4 µM): 1
relative viability (A-427; first compound 1.265 µM): 0.854
relative viability (A-427; first compound 4 µM): 0.784
relative viability (NCI-H1792; first compound 0.04 µM): 0.656
relative viability (NCI-H1792; first compound 0.4 µM): 0.708
relative viability (NCI-H1792; first compound 1.265 µM): 0.622
relative viability (NCI-H1792; first compound 4 µM): 0.31
relative viability (NCI-H2228; first compound 0.04 µM): 1.13
relative viability (NCI-H2228; first compound 0.1265 µM): 0.671
relative viability (NCI-H2228; first compound 0.4 µM): 0.667
relative viability (NCI-H2228; first compound 1.265 µM): 0.557
relative viability (NCI-H2228; first compound 4 µM): 0.308
relative viability (NCI-H2009; first compound 0.04 µM): 1.2
relative viability (NCI-H2009; first compound 0.1265 µM): 0.938
relative viability (NCI-H2009; first compound 0.4 µM): 0.837
relative viability (NCI-H2009; first compound 1.265 µM): 0.359
relative viability (NCI-H2009; first compound 4 µM): 0.388
relative viability (NCI-H1915; first compound 0.04 µM): 0.781
relative viability (NCI-H1915; first compound 0.1265 µM): 0.567
relative viability (NCI-H1915; first compound 0.4 µM): 0.698
relative viability (NCI-H1915; first compound 1.265 µM): 0.419
relative viability (NCI-H1915; first compound 4 µM): 0.198
relative viability (NCI-H23; first compound 0.04 µM): 0.687
relative viability (NCI-H23; first compound 0.1265 µM): 0.781
relative viability (NCI-H23; first compound 0.4 µM): 0.62
relative viability (NCI-H23; first compound 1.265 µM): 0.395
relative viability (NCI-H23; first compound 4 µM): 0.144
relative viability (SW 1573; first compound 0.04 µM): 0.984
relative viability (SW 1573; first compound 0.1265 µM): 0.756
relative viability (SW 1573; first compound 0.4 µM): 0.827
relative viability (SW 1573; first compound 1.265 µM): 0.536
relative viability (SW 1573; first compound 4 µM): 0.239
relative viability (NCI-H460; first compound 0.04 µM): 1.02
relative viability (NCI-H460; first compound 0.1265 µM): 0.671
relative viability (NCI-H460; first compound 0.4 µM): 0.499
relative viability (NCI-H460; first compound 1.265 µM): 0.0782
relative viability (NCI-H460; first compound 4 µM): 0.0465
relative viability (HCC-827; first compound 0.04 µM): 0.95
relative viability (HCC-827; first compound 0.4 µM): 1.14
relative viability (HCC-827; first compound 1.265 µM): 0.94
relative viability (HCC-827; first compound 4 µM): 0.689
